Publication PMC6340882, “Targeting protein kinase CK2 and CDK4/6 pathways with a multi-kinase inhibitor ON108110 suppresses pro-survival signaling and growth in mantle cell lymphoma and T-acute lymphoblastic leukemia” (Oncotarget, 2018)

Tests used:
[1] = test system: CEM, HBL-2, RS4-11 and Granta-519 cells; assay: Apoptosis, Annexin V/DAPI staining; type: cell-based, human; settings: 0.5-2.0 μM, 24 hours post-treatment
Procedure: Figure 5 Modulation of cell cycle expression and induction of apoptosis in ON 108110-treated MCL and T-ALL cell lines (A) CEM and Granta-519 cells were treated with either DMSO or increasing concentrations of ON108110 (0.5-2.0μM) for 24 hours. Cell cycle analysis was performed using propidium iodide staining. (B) CEM, HBL-2, RS4-11 and Granta-519 cells were treated with either DMSO (vehicle) or increasing concentrations of ON108110 (0.5-2.0 μM) for 24 hours and stained with Annexin V/DAPI (C) Graphical representation of apoptosis induced as shown in B. (D) Granta-519 cells were treated with increasing concentrations of ON108110 for 24 hours. Caspase activation and viability were measured using the Caspase Glo 3/7 and Cell Titer Blue assay kits, respectively. […]
To determine cell cycle distribution, 70% ethanol fixed cells were washed with phosphate buffered saline (PBS), resuspended in PBS and incubated with RNase and propidium iodide at 37°C for 20 min. DNA content was analyzed on a FACS Calibur (BD Immunocytometry Systems) and the data analyzed using Flowjo software (Treestar). Annexin V staining was measured using the FITC Annexin V Apoptosis Detection Kit I (BD Biosciences) according to the instructions of the manufacturer except that DAPI was substituted at a concentration of […] to measure DNA content.

[2] = test system: MCL and ALL cell lines as well as normal PBMCs; assay: GI50 of MCL and ALL cell lines compared to normal PBMCs (Figure 4C); type: cell-based, human; settings: MCL and T-ALL cell lines vs PBMCs in vitro, 72 hours post-treatment
Procedure: Figure 4 CK2 and CDK4 expression in cell lines and primary samples (A) mRNA levels of CK2 subunits in a panel of MCL and T-ALL leukemic cell lines and normal human PBMCs. (B) Protein levels of CK2 subunits and pRB^Ser807/811 in a panel of MCL and T-ALL leukemic cell lines and normal human PBMCs. (C) Calculation of GI50 values against of ON108110 against MCL and ALL cell lines as well as normal PBMCs 72 hours post-treatment.
Cell lines were cultured in RPMI-1640 medium (Thermo Scientific) supplemented with 10% heat inactivated FBS and penicillin-streptomycin at 37°C under humidified conditions and 5% CO2. All cell lines tested negative for mycoplasma. […] Compounds were added 24 hrs post-plating at the indicated concentrations. […]

[3] = test system: panel of solid tumor and leukemic cell lines; assay: Primary growth inhibition screen, MCLs and T-ALLs compared to other tumor types; type: cell-based, human; settings: from GI50 values of primary screen
Procedure: (§1) Cell lines were cultured in RPMI-1640 medium (Thermo Scientific) supplemented with 10% heat inactivated FBS and penicillin-streptomycin at 37°C under humidified conditions and 5% CO2. All cell lines tested negative for mycoplasma. […] Compounds were added 24 hrs post-plating at the indicated concentrations. Cell counts were determined from duplicate wells 96 hrs post-treatment using the Cell Titer Blue assay in conjunction with the GloMax plate reader (Promega).

CK2α1 = CK2α1 (Homo sapiens, UniProt P68400); assay: In vitro kinase assay with recombinant protein (32P-ATP, filtermat); type: biochemical; settings: recombinant CK2α1, independent in vitro kinase assay, 20μM ATP
Sequence of CK2α1 (P68400 whole entry): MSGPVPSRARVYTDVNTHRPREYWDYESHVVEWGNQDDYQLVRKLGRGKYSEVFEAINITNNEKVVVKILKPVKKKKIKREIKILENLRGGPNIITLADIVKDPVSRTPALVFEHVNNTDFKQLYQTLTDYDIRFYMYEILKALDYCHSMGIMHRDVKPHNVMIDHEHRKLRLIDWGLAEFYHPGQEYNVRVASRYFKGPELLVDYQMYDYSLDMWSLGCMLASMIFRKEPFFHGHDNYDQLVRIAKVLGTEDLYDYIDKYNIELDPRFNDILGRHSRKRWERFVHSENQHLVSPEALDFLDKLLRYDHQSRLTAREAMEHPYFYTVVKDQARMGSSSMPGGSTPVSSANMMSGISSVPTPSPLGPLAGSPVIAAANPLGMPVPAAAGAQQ
Procedure: (§2) (B) Structure of ON108110. (C) Calculation of IC50 values against CDK4 and CDK6 and (D) CK2α1 and CK2α2 by ON108110. Recombinant proteins were incubated with the indicated concentrations of ON108110 and subjected to in vitro kinase assays as described in the materials and methods section. Values obtained were plotted as a function of log drug concentration. IC50 values were determined by performing sigmoidal non-linear regression with a variable slope.
(§3) Recombinant CDK4/CYCLIN D1 or CK2α1 were mixed with their respective synthetic peptide substrates (10ng) and incubated with DMSO or increasing concentrations of ON108110 in 20μl kinase buffer [50mM Tris-HCl (pH 7.5), 10mM MgCl2, 1mM EGTA, 2mM DTT and 0.01% NP-40] for 30 min. at room temperature. Kinase reactions were carried out for 20 min at 30°C in the presence of 5μl of substrate-ATP mixture (1μg RB, 20μM ATP, 20μCi γ-^32P-ATP). […] The filtermat was air-dried, blocked with methanol for 2 minutes followed by three washes with 75mM phosphoric acid. The filtermat was then air-dried and analyzed using a phosphoimager.

CDK4 = CDK4 (Homo sapiens, UniProt P11802); assay: as above; type: biochemical; settings: recombinant CDK4, independent in vitro kinase assay, 20μM ATP
Sequence of CDK4 (P11802 whole entry): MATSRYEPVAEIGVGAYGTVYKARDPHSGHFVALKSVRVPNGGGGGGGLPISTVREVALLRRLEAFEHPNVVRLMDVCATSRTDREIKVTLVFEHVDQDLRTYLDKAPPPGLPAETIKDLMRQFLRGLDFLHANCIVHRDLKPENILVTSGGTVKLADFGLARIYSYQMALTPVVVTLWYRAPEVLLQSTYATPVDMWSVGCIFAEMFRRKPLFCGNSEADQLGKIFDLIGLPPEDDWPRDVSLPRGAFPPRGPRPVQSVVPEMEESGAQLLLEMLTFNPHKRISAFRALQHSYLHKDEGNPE
Sequence of CDK4 (P24385 whole entry partner): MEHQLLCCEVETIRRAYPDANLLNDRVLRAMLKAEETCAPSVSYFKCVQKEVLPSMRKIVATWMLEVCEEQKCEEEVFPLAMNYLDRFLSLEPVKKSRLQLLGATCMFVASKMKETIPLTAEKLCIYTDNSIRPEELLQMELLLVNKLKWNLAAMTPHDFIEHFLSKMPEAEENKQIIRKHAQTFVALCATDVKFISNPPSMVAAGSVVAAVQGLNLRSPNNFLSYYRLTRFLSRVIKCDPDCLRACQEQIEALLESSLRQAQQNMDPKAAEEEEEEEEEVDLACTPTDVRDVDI
Procedure: as §2, §3

CK2α2 = CK2α2 (Homo sapiens, UniProt P19784); assay: as above; type: biochemical; settings: recombinant CK2α2, independent in vitro kinase assay, 20μM ATP
Sequence of CK2α2 (P19784 whole entry): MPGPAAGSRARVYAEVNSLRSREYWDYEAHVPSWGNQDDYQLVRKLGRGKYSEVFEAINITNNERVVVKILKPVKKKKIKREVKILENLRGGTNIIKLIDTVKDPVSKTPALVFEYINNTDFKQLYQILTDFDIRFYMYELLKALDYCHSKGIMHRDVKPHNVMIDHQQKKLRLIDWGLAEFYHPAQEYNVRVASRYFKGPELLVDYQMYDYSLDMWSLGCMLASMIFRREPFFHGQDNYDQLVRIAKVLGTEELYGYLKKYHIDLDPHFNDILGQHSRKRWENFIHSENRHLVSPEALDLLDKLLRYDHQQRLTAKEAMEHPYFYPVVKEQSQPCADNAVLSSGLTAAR
Procedure: as §2, §3

hPBMC = assay: Growth inhibition (GI50), Cell Titer Blue; type: cell-based, human; settings: normal human cells (Table 1)
Procedure: as §1
(§4) Peripheral blood samples were obtained from patients at the Icahn School of Medicine at Mount Sinai with informed and written consent for tissue banking following a protocol approved by the Institutional Review Board (MSSM IRB#11-1669) and in accordance with the Declaration of Helsinki. Peripheral blood mononuclear cells were pelleted by low-speed centrifugation, resuspended in media composed of 90% fetal bovine serum (FBS) and 10% DMSO (Sigma), frozen slowly in the vapor phase of liquid nitrogen in multiple cryovials, and stored in liquid nitrogen.

[4] = Growth inhibition (GI50), Cell Titer Blue; type: cell-based, human; settings: normal human peripheral blood mononuclear cells (hPBMC); hPBMC, Normal Human Peripharal Mononuclear Cells; 96 hrs post-treatment
Procedure: as §1, §4

**Q.** With `CC(=O)Oc1ccc(/C=C2\Sc3ccc(F)cc3NC2=O)cc1[N+](=O)[O-]` [ON108110] as the molecule, how does the “frequency of apoptotic cells (Annexin V)” value [1] read?
**A.** concentration-dependent increase in the frequency of apoptotic cells

**Q.** And the “fold more sensitive compared to PBMCs (IC50 values)” value [2]?
**A.** > 100 fold

**Q.** And the “fold higher cytotoxicity against MCLs and T-ALLs compared to other tumor types” value [3]?
**A.** 10-20 fold

**Q.** What about the IC50 (CK2α1) of the same molecule?
**A.** 3 nM

**Q.** And the IC50 (CDK4)?
**A.** 6 nM

**Q.** And the IC50 (CK2α2)?
**A.** 2 nM

**Q.** And the “cytotoxicity towards normal human cells” value (hPBMC)?
**A.** little or no cytotoxicity

**Q.** What about the GI50 at 96 h [4] of the same molecule?
**A.** > 5000 nM
